From PMC12207590, “Substrate Specificity of the Organic Cation Transporters MATE1 and MATE2K and Functional Overlap with OCT1 and OCT2” (Journal of Medicinal Chemistry, 2025)
Read-outs that look alike come from different tables or passages of the source.

How the values were obtained:
MATE2K = MATE2K (Homo sapiens, UniProt Q86VL8); test: Uptake ratio in MATE2K-overexpressing HEK293 cells vs empty vector (2.5 μM, 1 min, HPLC-MS/MS); format: cell-based
MATE1 = molecular target: T1, MATE1 (Homo sapiens, UniProt Q96FL8); test: Uptake ratio in MATE1-overexpressing HEK293 cells vs empty vector (2.5 μM, 1 min, HPLC-MS/MS); format: cell-based
T1 sequence (Q96FL8 1-570): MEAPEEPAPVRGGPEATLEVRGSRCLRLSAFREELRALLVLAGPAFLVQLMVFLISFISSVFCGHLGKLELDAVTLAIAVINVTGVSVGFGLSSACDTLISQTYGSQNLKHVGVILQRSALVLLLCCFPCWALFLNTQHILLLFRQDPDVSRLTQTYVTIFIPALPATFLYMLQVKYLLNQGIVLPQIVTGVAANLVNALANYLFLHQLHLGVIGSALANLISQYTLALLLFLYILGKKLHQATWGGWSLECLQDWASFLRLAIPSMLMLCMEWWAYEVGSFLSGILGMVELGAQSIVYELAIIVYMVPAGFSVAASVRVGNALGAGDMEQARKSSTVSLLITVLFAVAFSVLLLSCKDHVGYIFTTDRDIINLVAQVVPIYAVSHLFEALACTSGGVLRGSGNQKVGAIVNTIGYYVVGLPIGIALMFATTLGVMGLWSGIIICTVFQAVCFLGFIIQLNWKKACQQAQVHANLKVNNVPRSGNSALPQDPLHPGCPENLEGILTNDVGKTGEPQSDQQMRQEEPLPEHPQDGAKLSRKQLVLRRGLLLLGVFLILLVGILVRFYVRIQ

[1] = fold uptake over empty vector, 2.5 μM, 1 min
[2] = uptake ratio MATE2K-overexpressing vs empty-vector HEK293 cells, 2.5 μM, 1 min, mean
[3] = uptake ratio MATE1-overexpressing vs empty-vector HEK293 cells, 2.5 μM, 1 min, mean
[4] = fold uptake over empty vector, 2.5 μM, 1 min, listed as reproterol

Chain of MATE2K (Q86VL8 1-566 isoform Q86VL8-3): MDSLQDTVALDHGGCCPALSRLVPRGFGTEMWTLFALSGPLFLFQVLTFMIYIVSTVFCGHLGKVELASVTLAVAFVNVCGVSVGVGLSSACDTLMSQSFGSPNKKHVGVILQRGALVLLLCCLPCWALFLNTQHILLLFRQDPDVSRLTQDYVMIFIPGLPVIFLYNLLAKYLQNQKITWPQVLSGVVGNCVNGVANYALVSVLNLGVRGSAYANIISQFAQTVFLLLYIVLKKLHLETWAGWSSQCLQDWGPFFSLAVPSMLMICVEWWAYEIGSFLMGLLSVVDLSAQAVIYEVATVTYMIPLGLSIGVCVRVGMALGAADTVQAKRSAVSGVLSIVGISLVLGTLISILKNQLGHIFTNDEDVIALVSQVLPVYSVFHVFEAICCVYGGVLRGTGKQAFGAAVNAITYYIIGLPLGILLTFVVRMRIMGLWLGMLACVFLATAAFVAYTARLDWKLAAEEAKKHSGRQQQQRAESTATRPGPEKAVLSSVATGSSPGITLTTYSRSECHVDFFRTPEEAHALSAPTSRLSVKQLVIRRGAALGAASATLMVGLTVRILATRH

Row | Compound | MATE2K ratio (MATE2K; [1]) | MATE1 ratio (MATE1; [1]) | further results
1 | CCc1nn(CCCN2CCN(c3cccc(Cl)c3)CC2)c(=O)n1CCOc1ccccc1 [Nefazodone] | 1.24 | 1.34 | 
2 | O=C(O)c1cccnc1 [Niacin] | 0.90 | 1.06 | 
3 | CNC(=C[N+](=O)[O-])NCCSCc1csc(CN(C)C)n1 [Nizatidine] | 10.42 | 11.88 | 
4 | CC(N)Cc1cccc(C(F)(F)F)c1 (stereo not drawn) [Norfenfluramine (+), Norfenfluramine] |  |  | MATE2K ratio (MATE2K): 1.45; MATE1 ratio (MATE1): 1.22
5 | NCC(O)c1cccc(O)c1 (stereo not drawn) [Norphenylephrine] | 1.22 | 26.13 | 
6 | C[C@@H]1Cc2c(Cl)cc(C(=O)N[C@@H](Cc3ccccc3)C(=O)O)c(O)c2C(=O)O1 [Ochratoxin A] |  |  | MATE2K ratio (MATE2K): 1.28; MATE1 ratio (MATE1): 3.12; substrate of MATE1 (MATE1): substrates of MATE1
7 | NCC(O)c1ccc(O)cc1 (stereo not drawn) [Octopamine] | 1.43 | 20.87 | 
8 | COc1ccc(CC(C)(C)NC[C@H](O)c2cc(O)cc3c2OCC(=O)N3)cc1 [Olodaterol] | 6.19 | 3.34 | 
9 | CCOC(=O)C1=C[C@@H](OC(CC)CC)[C@H](NC(C)=O)[C@@H](N)C1 [Oseltamivir] | 1.04 | 1.18 | 
10 | C=CCOc1ccccc1OCC(O)CNC(C)C (stereo not drawn) [Oxprenolol] | 1.20 | 1.05 | 
11 | Cc1cc(C(C)(C)C)c(O)c(C)c1CC1=NCCN1 [Oxymetazoline] | 2.29 | 5.22 | 
12 | CC[N+](C)(CC)CCOC(=O)C(O)(c1ccccc1)C1CCCCC1 (stereo not drawn) [Oxyphenonium] | 2.04 | 9.89 | 
13 | CC(C)(CO)[C@@H](O)C(=O)NCCC(=O)O [Pantothenic acid] | 1.71 | 1.48 | 
14 | CC(=O)Nc1ccc(O)cc1 [Paracetamol] | 0.99 | 1.00 | 
15 | OCCN1CCN(CCCN2c3ccccc3Sc3ccc(Cl)cc32)CC1 [Perphenazine] | 0.94 | 1.09 | 
16 | NNCCc1ccccc1 [Phenelzine] | 1.91 | 1.58 | 
17 | N[C@@H](Cc1ccccc1)C(=O)O [Phenylalanine] | 1.01 | 0.66 | 
18 | CNC[C@H](O)c1cccc(O)c1 [Phenylephrine (L), Phenylephrine] | 2.15 | 18.71 | 
19 | CNC[C@H](O)c1cccc(O)c1 [Phenylephrine (S), Phenylephrine] | 1.44 | 12.74 | 
20 | CC[C@@H]1C(=O)OC[C@@H]1Cc1cncn1C [Pilocarpine] | 1.39 | 1.39 | 
21 | O=c1[nH]c2ccccc2n1C1CCN(CCCC(c2ccc(F)cc2)c2ccc(F)cc2)CC1 [Pimozide] | 0.76 | 0.98 | 
22 | COc1ccc2[nH]c3c(c2c1)CCNC3 [Pinoline] |  |  | MATE2K ratio (MATE2K): 1.21; MATE1 ratio (MATE1): 1.28
23 | C1CNCCN1 [Piperazine] | 1.03 | 0.92 | 

Row | Compound | MATE2K ratio (MATE2K; [1]) | MATE1 ratio (MATE1; [1]) | further results
24 | CN1CCN(CC(=O)N2c3ccccc3C(=O)Nc3cccnc32)CC1 [Pirenzepine] | 1.36 | 2.80 | 
25 | Nc1cccc2c1C(=O)N(C1CCC(=O)NC1=O)C2=O (stereo not drawn) [Pomalidomide] | 0.89 | 1.08 | 
26 | CC(=O)Nc1ccc(OCC(O)CNC(C)C)cc1 (stereo not drawn) [Practolol] | 8.46 | 21.52 | 
27 | CC(C)NC[C@H](O)COc1ccc(O)cc1 [Prenalterol] | 1.62 | 5.01 | 
28 | OC(CCN1CCCCC1)(c1ccccc1)c1ccccc1 [Pridinol] | 1.27 | 1.18 | 
29 | CC(C)NC(=N)NC(=N)Nc1ccc(Cl)cc1 [Proguanil] | 3.98 | 5.54 | MATE2K ratio in this study (MATE2K; Table S1, 2.5 μM, 1 min): 3.98; MATE1 ratio in this study (MATE1; Table S1, 2.5 μM, 1 min): 5.54
30 | CC(C)[N+](C)(CCOC(=O)C1c2ccccc2Oc2ccccc21)C(C)C [Propantheline] | 5.77 | 10.16 | MATE2 (MATE2K; [2]): 5.77; MATE1 (MATE1; [3]): 10.16
31 | CC(C)c1cccc(C(C)C)c1O [Propofol] |  |  | MATE2 (MATE2K): 0.8; MATE2K ratio (MATE2K): 0.80; MATE1 (MATE1): 0.64; MATE1 ratio (MATE1): 0.64
32 | CC(C)NCC(O)COc1cccc2ccccc12 [Propranolol (R), Propranolol] |  |  | MATE2 (MATE2K; [2]): 1.04; MATE1 (MATE1; [3]): 1.16
33 | CC(C)NCC(O)COc1cccc2ccccc12 [Propranolol (S), Propranolol] |  |  | MATE2 (MATE2K; [2]): 0.96; MATE1 (MATE1; [3]): 1.13
34 | CCCCC[C@H](O)/C=C/[C@H]1[C@H](O)CC(=O)[C@@H]1C/C=C\CCCC(=O)O [Prostaglandin E2] |  |  | MATE2 (MATE2K): 1.21; MATE2K ratio (MATE2K): 1.21; MATE1 (MATE1): 1.35; MATE1 ratio (MATE1): 1.35
35 | CCCCC[C@H](O)/C=C/[C@@H]1[C@@H](C/C=C\CCCC(=O)O)[C@@H](O)C[C@H]1O [Prostaglandin F2alpha] | 0.92 | 1.41 | MATE2 (MATE2K; [2]): 0.92; MATE1 (MATE1; [3]): 1.41
36 | NCCCCN [Putrescine] | 0.48 | 0.36 | MATE2 (MATE2K; [2]): 0.48; MATE1 (MATE1; [3]): 0.36
37 | Cc1ncc(CO)c(C=O)c1O [Pyridoxal] | 1.14 | 0.97 | MATE2 (MATE2K; [2]): 1.14; MATE1 (MATE1; [3]): 0.97
38 | CCc1nc(N)nc(N)c1-c1ccc(Cl)cc1 [Pyrimethamine] | 1.10 | 1.17 | MATE2 (MATE2K; [2]): 1.1; MATE1 (MATE1; [3]): 1.17
39 | Br.Cc1ncc(C[n+]2cccc(CCO)c2C)c(N)n1.[Br-] [Pyrithiamine] | 7.32 | 20.40 | MATE2 (MATE2K; [2]): 7.32; MATE1 (MATE1; [3]): 20.4
40 | CC(CCc1ccc(O)cc1)NCC(O)c1ccc(O)cc1 (stereo not drawn) [Ractopamine] |  |  | MATE2 (MATE2K): 1.4; MATE2K ratio (MATE2K): 1.40; MATE1 (MATE1): 4.56; MATE1 ratio (MATE1): 4.56
41 | O=C(c1ccc(OCCN2CCCCC2)cc1)c1c(-c2ccc(O)cc2)sc2cc(O)ccc12 [Raloxifene] | 1.12 | 1.12 | MATE2 (MATE2K; [2]): 1.12; MATE1 (MATE1; [3]): 1.12
42 | COc1ccccc1OCC(O)CN1CCN(CC(=O)Nc2c(C)cccc2C)CC1 (stereo not drawn) [Ranolazine] | 1.30 | 1.11 | MATE2 (MATE2K; [2]): 1.3; MATE1 (MATE1; [3]): 1.11
43 | C#CCN[C@@H]1CCc2ccccc21 [Rasagiline (S), Rasagiline] | 1.46 | 1.46 | MATE2 (MATE2K; [2]): 1.46; MATE1 (MATE1; [3]): 1.46
44 | CCN1CCC[C@H]1CNC(=O)c1c(OC)ccc(Br)c1OC [Remoxipride] | 1.21 | 1.19 | MATE2 (MATE2K; [2]): 1.21; MATE1 (MATE1; [3]): 1.19
45 | Cn1c(=O)c2c(ncn2CCCNCC(O)c2cc(O)cc(O)c2)n(C)c1=O (stereo not drawn) [Reproterol] | 17.96 | 5.18 | MATE2K ratio (MATE2K; [4]): 17.9; MATE2 (MATE2K; [2]): 17.96; MATE1 ratio (MATE1; [4]): 5.2; MATE1 (MATE1; [3]): 5.18
